Test results taken from patent US9340590B2 (priority 2011, dated 2016).
Where two headings read alike, the source gives them in different places. Positions of bridges follow the written chain, without caps; N, C: chain ends. Non-standard residues stand in square brackets, D forms with d. Residues, ends and D or L forms follow the SMILES beside them. 1Nal = N[C@@H](Cc1cccc2ccccc12)C(=O)O; 2Pal = N[C@@H](Cc1ccccn1)C(=O)O

Experiments:
Experiment in all cases: cell-based
hNav1.7 = hNav1.7 (Homo sapiens, UniProt Q15858); assay type: cell-based; details: IonWorks Quattro
Sequence of hNav1.7 (Q15858 whole entry, looked up): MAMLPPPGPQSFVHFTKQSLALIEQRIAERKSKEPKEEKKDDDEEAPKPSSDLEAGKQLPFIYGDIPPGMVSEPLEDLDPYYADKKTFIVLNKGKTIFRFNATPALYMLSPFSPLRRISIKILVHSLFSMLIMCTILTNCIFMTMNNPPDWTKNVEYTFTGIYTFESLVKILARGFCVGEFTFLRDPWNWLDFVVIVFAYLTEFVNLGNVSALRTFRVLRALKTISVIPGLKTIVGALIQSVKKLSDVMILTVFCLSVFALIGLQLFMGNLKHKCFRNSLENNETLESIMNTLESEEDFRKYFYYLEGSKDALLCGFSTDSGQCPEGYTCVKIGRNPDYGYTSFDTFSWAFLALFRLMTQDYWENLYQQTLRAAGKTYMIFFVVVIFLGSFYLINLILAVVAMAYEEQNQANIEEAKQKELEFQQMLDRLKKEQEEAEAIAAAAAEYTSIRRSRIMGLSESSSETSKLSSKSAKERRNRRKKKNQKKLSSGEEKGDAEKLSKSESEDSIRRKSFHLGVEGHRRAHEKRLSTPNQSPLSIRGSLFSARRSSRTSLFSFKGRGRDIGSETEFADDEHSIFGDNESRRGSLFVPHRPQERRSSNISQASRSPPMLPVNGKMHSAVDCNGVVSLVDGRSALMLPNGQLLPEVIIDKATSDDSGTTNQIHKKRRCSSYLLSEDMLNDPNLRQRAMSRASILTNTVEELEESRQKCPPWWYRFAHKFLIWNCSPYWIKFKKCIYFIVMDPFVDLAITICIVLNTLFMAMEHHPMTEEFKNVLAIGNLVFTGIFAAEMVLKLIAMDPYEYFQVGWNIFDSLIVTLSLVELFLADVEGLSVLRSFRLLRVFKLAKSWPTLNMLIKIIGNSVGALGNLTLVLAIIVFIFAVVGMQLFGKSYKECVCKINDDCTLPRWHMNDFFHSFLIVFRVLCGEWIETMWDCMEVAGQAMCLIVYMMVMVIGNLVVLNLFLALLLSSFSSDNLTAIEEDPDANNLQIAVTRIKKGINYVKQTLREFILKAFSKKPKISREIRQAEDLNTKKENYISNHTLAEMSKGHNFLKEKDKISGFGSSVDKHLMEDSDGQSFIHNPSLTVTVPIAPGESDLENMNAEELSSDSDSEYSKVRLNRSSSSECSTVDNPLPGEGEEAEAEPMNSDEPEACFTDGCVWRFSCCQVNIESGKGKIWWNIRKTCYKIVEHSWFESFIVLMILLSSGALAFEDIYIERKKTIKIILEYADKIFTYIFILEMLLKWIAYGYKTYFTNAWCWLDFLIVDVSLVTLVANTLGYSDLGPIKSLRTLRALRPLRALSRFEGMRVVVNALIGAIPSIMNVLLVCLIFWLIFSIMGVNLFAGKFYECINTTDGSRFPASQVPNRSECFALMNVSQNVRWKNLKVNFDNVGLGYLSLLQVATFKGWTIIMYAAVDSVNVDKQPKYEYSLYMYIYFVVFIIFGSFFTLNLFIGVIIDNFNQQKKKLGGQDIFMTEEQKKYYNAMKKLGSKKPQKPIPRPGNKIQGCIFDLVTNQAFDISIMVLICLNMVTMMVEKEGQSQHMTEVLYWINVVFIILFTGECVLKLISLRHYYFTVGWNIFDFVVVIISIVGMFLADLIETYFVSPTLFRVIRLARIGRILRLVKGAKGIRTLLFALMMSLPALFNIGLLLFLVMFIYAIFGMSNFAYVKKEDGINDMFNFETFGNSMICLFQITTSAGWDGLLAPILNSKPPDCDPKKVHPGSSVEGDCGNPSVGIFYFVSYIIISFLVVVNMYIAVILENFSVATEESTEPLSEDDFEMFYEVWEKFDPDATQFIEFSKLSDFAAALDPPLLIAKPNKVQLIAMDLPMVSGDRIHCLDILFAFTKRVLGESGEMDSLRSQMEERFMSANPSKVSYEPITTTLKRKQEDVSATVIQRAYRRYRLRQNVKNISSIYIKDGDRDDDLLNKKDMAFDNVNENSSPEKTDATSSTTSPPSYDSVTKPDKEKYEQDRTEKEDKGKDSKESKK

hNav1.5 = hNav1.5 (Homo sapiens, UniProt Q14524)
hNav1.3 = hNav1.3 (Homo sapiens, UniProt Q9NY46); details: IonWorks Quattro, read-out: IWQ Use Nav1.3
Sequence of hNav1.3 (Q9NY46 whole entry, looked up): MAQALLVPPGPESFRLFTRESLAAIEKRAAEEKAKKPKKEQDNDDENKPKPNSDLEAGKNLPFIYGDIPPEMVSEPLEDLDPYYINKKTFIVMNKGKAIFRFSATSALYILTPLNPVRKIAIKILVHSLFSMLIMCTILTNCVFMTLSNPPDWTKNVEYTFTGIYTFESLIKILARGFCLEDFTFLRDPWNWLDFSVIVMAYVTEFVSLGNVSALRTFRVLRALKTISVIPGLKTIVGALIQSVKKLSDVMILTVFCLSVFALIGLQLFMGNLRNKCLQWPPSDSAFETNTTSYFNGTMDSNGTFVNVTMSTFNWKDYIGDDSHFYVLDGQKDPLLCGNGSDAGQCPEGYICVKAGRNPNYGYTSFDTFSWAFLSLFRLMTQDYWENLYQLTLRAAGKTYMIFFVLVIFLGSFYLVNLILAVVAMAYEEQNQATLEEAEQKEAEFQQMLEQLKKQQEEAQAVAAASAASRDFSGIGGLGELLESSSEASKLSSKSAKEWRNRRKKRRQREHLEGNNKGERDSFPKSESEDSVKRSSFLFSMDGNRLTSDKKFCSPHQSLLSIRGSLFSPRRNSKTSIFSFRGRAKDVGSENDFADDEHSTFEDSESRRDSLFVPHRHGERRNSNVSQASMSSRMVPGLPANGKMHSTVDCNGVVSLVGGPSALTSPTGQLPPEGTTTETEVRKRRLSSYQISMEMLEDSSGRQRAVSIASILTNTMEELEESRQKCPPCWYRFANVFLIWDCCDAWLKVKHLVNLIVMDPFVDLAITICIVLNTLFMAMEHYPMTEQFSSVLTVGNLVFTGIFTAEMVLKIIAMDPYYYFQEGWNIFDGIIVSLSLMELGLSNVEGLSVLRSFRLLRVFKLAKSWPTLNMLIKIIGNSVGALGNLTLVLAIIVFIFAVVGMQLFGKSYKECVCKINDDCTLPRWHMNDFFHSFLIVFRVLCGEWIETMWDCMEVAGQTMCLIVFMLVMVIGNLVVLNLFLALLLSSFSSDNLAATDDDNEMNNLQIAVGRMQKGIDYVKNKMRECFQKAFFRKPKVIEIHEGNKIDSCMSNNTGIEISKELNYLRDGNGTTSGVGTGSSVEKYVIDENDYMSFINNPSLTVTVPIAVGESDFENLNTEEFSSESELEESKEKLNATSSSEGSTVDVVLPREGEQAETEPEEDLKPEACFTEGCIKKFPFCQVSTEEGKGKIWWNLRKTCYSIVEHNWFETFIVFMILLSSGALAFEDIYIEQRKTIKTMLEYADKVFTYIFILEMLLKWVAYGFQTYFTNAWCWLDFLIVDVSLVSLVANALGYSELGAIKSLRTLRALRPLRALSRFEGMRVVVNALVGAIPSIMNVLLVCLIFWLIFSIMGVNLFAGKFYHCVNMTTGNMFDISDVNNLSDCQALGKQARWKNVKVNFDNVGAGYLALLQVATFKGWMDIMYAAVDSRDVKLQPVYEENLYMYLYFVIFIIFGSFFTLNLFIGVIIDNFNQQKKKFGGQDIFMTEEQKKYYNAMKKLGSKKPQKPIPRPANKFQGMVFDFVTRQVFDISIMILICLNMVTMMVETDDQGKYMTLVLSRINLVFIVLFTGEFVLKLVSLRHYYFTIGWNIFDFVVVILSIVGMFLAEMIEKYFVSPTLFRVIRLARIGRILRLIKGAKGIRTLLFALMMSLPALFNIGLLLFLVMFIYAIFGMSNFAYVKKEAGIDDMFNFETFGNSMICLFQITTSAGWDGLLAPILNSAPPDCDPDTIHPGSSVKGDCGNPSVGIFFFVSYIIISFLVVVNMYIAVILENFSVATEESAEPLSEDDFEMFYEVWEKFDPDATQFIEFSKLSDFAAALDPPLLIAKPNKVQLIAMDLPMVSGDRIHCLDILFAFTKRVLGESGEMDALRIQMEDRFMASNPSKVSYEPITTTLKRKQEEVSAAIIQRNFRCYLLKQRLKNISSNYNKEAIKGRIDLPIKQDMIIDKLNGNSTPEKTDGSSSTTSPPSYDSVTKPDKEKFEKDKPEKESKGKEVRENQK

[1] = IonWorks Quattro, use-dependent, […], read-out: IWQ Use Nav1.5
[2] = use-dependent, […], read-out: IWQ Use Nav1.7 (μm)
[3] = use-dependent block, hNav1.7, read-out: IWQ Use Nav1.7
[4] = IonWorks Quattro, use-dependent block, hNav1.5, read-out: IWQ Use Nav1.5

| SMILES | IC50 (hNav1.7; use-dependent, […], read-out: IWQ Use Nav1.7) [µM] | IC50 (hNav1.5; [1]) [µM] | IC50 (hNav1.3; use-dependent, […]) [µM] | IC50 (hNav1.7; [2]) [µM] | IC50 (hNav1.5; IWQ Use Nav1.5 (μM)) [µM] | IC50 (hNav1.7; [3]) [µM] | IC50 (hNav1.5; [4]) [µM] | IC50 (hNav1.3; use-dependent block, hNav1.3) [µM] |
| --- | --- | --- | --- | --- | --- | --- | --- | --- |
| CC[C@H](C)[C@@H]1NC(=O)[C@@H]2CSSC[C@@H]3NC(=O)[C@H](C(C)C)NC(=O)[C@H](CC(C)C)NC(=O)[C@H](CC(N)=O)NC(=O)[C@@H]4CCCN4C(=O)[C@H](CCCNC(=N)N)NC(=O)[C@H](CSSC[C@H](NC(=O)[C@@H](N)CC(=O)O)C(=O)N[C@@H](CC(C)C)C(=O)NCC(=O)N[C@@H](Cc4ccccc4)C(=O)N[C@@H](CCSC)C(=O)N[C@@H](CCCNC(=N)N)C(=O)N[C@@H](CCCCN)C(=O)N2)NC(=O)[C@H](CSSC[C@@H](C(=O)N[C@@H](CCCCN)C(=O)N[C@@H](Cc2ccc(O)cc2)C(=O)N[C@H](C(=O)N[C@@H](Cc2ccccn2)C(N)=O)C(C)C)NC(=O)[C@H](Cc2c[nH]c4ccccc24)NC(=O)[C@H](CCCCN)NC(=O)[C@H](Cc2c[nH]cn2)NC(=O)[C@H]([C@@H](C)O)NC(=O)[C@H](CCCNC(=N)N)NC(=O)[C@H](CO)NC3=O)NC(=O)[C@H](CCCCN)NC(=O)[C@H](CC(=O)O)NC(=O)[C@H](CC(N)=O)NC(=O)[C@H](CC(=O)O)NC(=O)[C@@H]2CCCN2C1=O [compound 411] (H-DCLGFMRKCIPDNDKCCRPNLVCSRTHKWCKYV[2Pal]-NH2; disulfide 2-17, 9-23, 16-30) | 5.82 | 8.16 | 4.83 |  |  |  |  |  |
| CC[C@H](C)[C@@H]1NC(=O)[C@@H]2CSSC[C@@H]3NC(=O)[C@H](C(C)C)NC(=O)[C@H](CC(C)C)NC(=O)[C@H](CC(N)=O)NC(=O)[C@@H]4CCCN4C(=O)[C@H](CCCNC(=N)N)NC(=O)[C@H](CSSC[C@H](NC(=O)[C@@H](N)CC(=O)O)C(=O)N[C@@H](CC(C)C)C(=O)NCC(=O)N[C@@H](Cc4ccccc4)C(=O)N[C@@H](CCSC)C(=O)N[C@@H](CCCNC(=N)N)C(=O)N[C@@H](CCCCN)C(=O)N2)NC(=O)[C@H](CSSC[C@@H](C(=O)N[C@@H](CCCCN)C(=O)N[C@@H](Cc2ccc(O)cc2)C(=O)N[C@H](C(=O)N[C@@H](Cc2ccccc2)C(=O)N[C@@H](Cc2ccc(C(=O)O)cc2)C(N)=O)C(C)C)NC(=O)[C@H](Cc2c[nH]c4ccccc24)NC(=O)[C@H](CCCCN)NC(=O)[C@H](Cc2c[nH]cn2)NC(=O)[C@H]([C@@H](C)O)NC(=O)[C@H](CCCNC(=N)N)NC(=O)[C@H](CO)NC3=O)NC(=O)[C@H](CCCCN)NC(=O)[C@H](CC(=O)O)NC(=O)[C@H](CC(N)=O)NC(=O)[C@H](CC(=O)O)NC(=O)[C@@H]2CCCN2C1=O [compound 413] |  | 8.65 | 5.35 | 1.15 |  |  |  |  |
| CC[C@H](C)[C@@H]1NC(=O)[C@@H]2CSSC[C@@H]3NC(=O)[C@H](C(C)C)NC(=O)[C@H](CC(C)C)NC(=O)[C@H](CC(N)=O)NC(=O)[C@@H]4CCCN4C(=O)[C@H](CCCNC(=N)N)NC(=O)[C@H](CSSC[C@H](NC(=O)[C@@H](N)CC(=O)O)C(=O)N[C@@H](CC(C)C)C(=O)NCC(=O)N[C@@H](Cc4ccccc4)C(=O)N[C@@H](CCSC)C(=O)N[C@@H](CCCNC(=N)N)C(=O)N[C@@H](CCCCN)C(=O)N2)NC(=O)[C@H](CSSC[C@@H](C(=O)N[C@@H](CCCCN)C(=O)N[C@@H](Cc2ccc(O)cc2)C(=O)N[C@H](C(=O)N[C@@H](Cc2ccccc2)C(=O)N[C@@H](Cc2ccccn2)C(N)=O)C(C)C)NC(=O)[C@H](Cc2c[nH]c4ccccc24)NC(=O)[C@H](CCCCN)NC(=O)[C@H](Cc2c[nH]cn2)NC(=O)[C@H]([C@@H](C)O)NC(=O)[C@H](CCCNC(=N)N)NC(=O)[C@H](CO)NC3=O)NC(=O)[C@H](CCCCN)NC(=O)[C@H](CC(=O)O)NC(=O)[C@H](CC(N)=O)NC(=O)[C@H](CC(=O)O)NC(=O)[C@@H]2CCCN2C1=O [compound 414] |  | 9.29 | 0.63 | 0.26 |  |  |  |  |
| CC[C@H](C)[C@@H]1NC(=O)[C@@H]2CSSC[C@@H]3NC(=O)[C@H](C(C)C)NC(=O)[C@H](CC(C)C)NC(=O)[C@H](CC(N)=O)NC(=O)[C@@H]4CCCN4C(=O)[C@H](CCCNC(=N)N)NC(=O)[C@H](CSSC[C@H](NC(=O)[C@@H](N)CC(=O)O)C(=O)N[C@@H](CC(C)C)C(=O)NCC(=O)N[C@@H](Cc4ccccc4)C(=O)N[C@@H](CCSC)C(=O)N[C@@H](CCCNC(=N)N)C(=O)N[C@@H](CCCCN)C(=O)N2)NC(=O)[C@H](CSSC[C@@H](C(=O)N[C@@H](CCCCN)C(N)=O)NC(=O)[C@H](Cc2c[nH]c4ccccc24)NC(=O)[C@H](CCCCN)NC(=O)[C@H](Cc2cnc[nH]2)NC(=O)[C@H]([C@@H](C)O)NC(=O)[C@H](CCCNC(=N)N)NC(=O)[C@H](CO)NC3=O)NC(=O)[C@H](CCCCN)NC(=O)[C@H](CC(=O)O)NC(=O)[C@H](CC(N)=O)NC(=O)[C@H](CC(=O)O)NC(=O)[C@@H]2CCCN2C1=O [compound 417] (H-DCLGFMRKCIPDNDKCCRPNLVCSRTHKWCK-NH2; disulfide 2-17, 9-23, 16-30) |  |  | 9.09 | 18.3 | 11.9 |  |  |  |
| CC[C@H](C)[C@@H]1NC(=O)[C@@H]2CSSC[C@@H]3NC(=O)[C@H](C(C)C)NC(=O)[C@H](CC(C)C)NC(=O)[C@H](CC(N)=O)NC(=O)[C@@H]4CCCN4C(=O)[C@H](CCCNC(=N)N)NC(=O)[C@H](CSSC[C@H](NC(=O)[C@@H](N)CC(=O)O)C(=O)N[C@@H](CC(C)C)C(=O)NCC(=O)N[C@@H](C)C(=O)N[C@@H](CCSC)C(=O)N[C@@H](CCCNC(=N)N)C(=O)N[C@@H](CCCCN)C(=O)N2)NC(=O)[C@H](CSSC[C@@H](C(=O)N[C@@H](CCCCN)C(=O)N[C@@H](Cc2ccc(O)cc2)C(=O)N[C@@H](CCC(=O)O)C(=O)N[C@@H](Cc2ccccc2)C(N)=O)NC(=O)[C@H](Cc2c[nH]c4ccccc24)NC(=O)[C@H](CCCCN)NC(=O)[C@H](Cc2c[nH]cn2)NC(=O)[C@H]([C@@H](C)O)NC(=O)[C@H](CCCNC(=N)N)NC(=O)[C@H](CO)NC3=O)NC(=O)[C@H](CCCCN)NC(=O)[C@H](CC(=O)O)NC(=O)[C@H](CC(N)=O)NC(=O)[C@H](CC(=O)O)NC(=O)[C@@H]2CCCN2C1=O [compound 419] (H-DCLGAMRKCIPDNDKCCRPNLVCSRTHKWCKYEF-NH2; disulfide 2-17, 9-23, 16-30) |  |  |  |  |  | 4 | 9.04 | 3.58 |
| CC[C@H](C)[C@@H]1NC(=O)[C@@H]2CSSC[C@@H]3NC(=O)[C@H](C(C)C)NC(=O)[C@H](CC(C)C)NC(=O)[C@H](CC(N)=O)NC(=O)[C@@H]4CCCN4C(=O)[C@H](CCCNC(=N)N)NC(=O)[C@H](CSSC[C@H](NC(=O)[C@@H](N)CC(=O)O)C(=O)N[C@@H](CC(C)C)C(=O)NCC(=O)N[C@@H](C)C(=O)N[C@@H](CCSC)C(=O)N[C@@H](CCCNC(=N)N)C(=O)N[C@@H](CCCCN)C(=O)N2)NC(=O)[C@H](CSSC[C@@H](C(=O)N[C@@H](CCCCN)C(=O)N[C@@H](Cc2ccc(O)cc2)C(=O)N[C@@H](Cc2cccc4ccccc24)C(=O)N[C@@H](Cc2ccccc2)C(N)=O)NC(=O)[C@H](Cc2c[nH]c4ccccc24)NC(=O)[C@H](CCCNC(=N)N)NC(=O)[C@H](Cc2c[nH]cn2)NC(=O)[C@H]([C@@H](C)O)NC(=O)[C@H](CCCNC(=N)N)NC(=O)[C@H](CO)NC3=O)NC(=O)[C@H](CCCCN)NC(=O)[C@H](CC(=O)O)NC(=O)[C@H](CC(N)=O)NC(=O)[C@H](CC(=O)O)NC(=O)[C@@H]2CCCN2C1=O [compound 420] (H-DCLGAMRKCIPDNDKCCRPNLVCSRTHRWCKY[1Nal]F-NH2; disulfide 2-17, 9-23, 16-30) |  |  |  |  |  | 0.2 | 7.5 | 0.32 |
| CC[C@H](C)[C@@H]1NC(=O)[C@@H]2CSSC[C@@H]3NC(=O)[C@H](C(C)C)NC(=O)[C@H](CC(C)C)NC(=O)[C@H](Cc4c[nH]c5ccccc45)NC(=O)[C@@H]4CCCN4C(=O)[C@H](CCCNC(=N)N)NC(=O)[C@H](CSSC[C@H](NC(=O)[C@@H](N)CC(=O)O)C(=O)N[C@@H](CC(C)C)C(=O)NCC(=O)N[C@@H](C)C(=O)N[C@@H](CCSC)C(=O)N[C@@H](CCCNC(=N)N)C(=O)N[C@@H](CCCCN)C(=O)N2)NC(=O)[C@H](CSSC[C@@H](C(=O)N[C@@H](CCCCN)C(=O)N[C@@H](Cc2ccc(O)cc2)C(=O)N[C@H](C(=O)N[C@@H](Cc2ccccc2)C(N)=O)C(C)C)NC(=O)[C@H](Cc2c[nH]c4ccccc24)NC(=O)[C@H](CCCCN)NC(=O)[C@H](Cc2c[nH]cn2)NC(=O)[C@H]([C@@H](C)O)NC(=O)[C@H](CCCNC(=N)N)NC(=O)[C@H](CO)NC3=O)NC(=O)[C@H](CCCCN)NC(=O)[C@H](CC(=O)O)NC(=O)[C@H](CC(N)=O)NC(=O)[C@H](CC(=O)O)NC(=O)[C@@H]2CCCN2C1=O [compound 422] (H-DCLGAMRKCIPDNDKCCRPWLVCSRTHKWCKYVF-NH2; disulfide 2-17, 9-23, 16-30) |  |  |  |  |  | 0.28 | > 5 | 0.39 |
| CC[C@H](C)[C@@H]1NC(=O)[C@@H]2CSSC[C@@H]3NC(=O)[C@H](C(C)C)NC(=O)[C@H](CC(C)C)NC(=O)[C@H](CC(N)=O)NC(=O)[C@@H]4CCCN4C(=O)[C@H](CCCNC(=N)N)NC(=O)[C@H](CSSC[C@H](NC(=O)[C@@H](N)CC(=O)O)C(=O)N[C@@H](CC(C)C)C(=O)NCC(=O)N[C@@H](C)C(=O)N[C@@H](CCSC)C(=O)N[C@@H](CCCNC(=N)N)C(=O)N[C@@H](CCCCN)C(=O)N2)NC(=O)[C@H](CSSC[C@@H](C(=O)N[C@@H](CCCCN)C(=O)N[C@@H](Cc2ccc(O)cc2)C(=O)N[C@H](C(=O)N[C@@H](Cc2ccccc2)C(N)=O)C(C)C)NC(=O)[C@H](Cc2c[nH]c4ccccc24)NC(=O)[C@H](CCCCN)NC(=O)[C@H](Cc2c[nH]cn2)NC(=O)[C@H]([C@@H](C)O)NC(=O)[C@H](CCCNC(=N)N)NC(=O)[C@H](CO)NC3=O)NC(=O)[C@H](CCCCN)NC(=O)[C@H](CC(=O)O)NC(=O)[C@H](CC(N)=O)NC(=O)[C@H](Cc2c[nH]c3ccccc23)NC(=O)[C@@H]2CCCN2C1=O [compound 423] (H-DCLGAMRKCIPWNDKCCRPNLVCSRTHKWCKYVF-NH2; disulfide 2-17, 9-23, 16-30) |  |  |  |  |  | 0.43 | > 5 | 1.09 |
